Results taken from paper PMC6391970, “Design, Synthesis and Characterization of Covalent KDM5 Inhibitors” (Angewandte Chemie (International Ed. in English), 2018).
Read-outs that look alike come from different tables or passages of the source.

What was measured:
KDM5A = KDM5A (Homo sapiens, UniProt P29375); assay: KDM AlphaScreen selectivity panel, KDM5A; format: biochemical; conditions: for SI over KDM5B, 5A: KDM5A IC50/KDM5B IC50
Experimental: (§1) A panel of JmjC KDMs was tested by AlphaScreen to determine the selectivity of the compounds (Table S2). […]
(§2) KDM alpha screen selectivity
(§3) Inhibition of histone demethylases was assessed using the histone demethylase AlphaScreen assay (Amplified Luminescence Proximity Homogenous Assay) as previously reported.[4] The basis of this assay for lysine demethylases have been widely described.[5] In brief, the assay was performed in 384-well plate format using white proxiplates (PerkinElmer), and transfer of titrations of compounds (100 nl) was performed using an ECHO 550 acoustic dispenser […]
(§4) Tween- 20) containing the appropriate demethylase enzyme (see Supplementary table 1 for final concentrations) was transferred to each well of a 384-well proxiplate with a Multidrop™ Combi Reagent Dispenser, and the enzymes allowed to pre-incubate for 120 minutes with compound (final concentration of DMSO was 1%). After that time, the enzyme reaction was initiated by addition of 5 µl of a substrate mix consisting of Ketoglutarate (2-OG), Ferrous Ammonium Sulphate (FAS), L-Ascorbic Acid (LAA) and biotinylated peptide substrate (see Supporting table X for final assay concentrations) and the reaction incubated for the indicated time at room temperature. Reaction was stopped by the addition of 5 μl of assay buffer containing EDTA (7.5 mM) and NaCl (400 mM). Streptavidin Donor beads (0.08 mg/ml) and Protein-A conjugated acceptor beads (0.08 mg/ml) (AlphaScreen General IgG detection kit was from Perkin Elmer) were pre-incubated for 1 hour with an antibody to the product methyl mark (Supplementary Table 1) and the presence of biotin-H3-product was detected by addition of 5 µl of the pre-incubated AlphaScreen beads (final concentrations of 0.02 mg/ml with respect to acceptor and donor beads). Detection was allowed to proceed for 2 hour at room temperature and the assay plates read in a BMG Labtech Pherastar FS plate reader (excitation, 680 nm; emission, 570 […]
(§5) IC50(t) = Ki (1 + K ) . ( η . k .t − 1) (1) […]
(§6) Table S4. AlphaScreen assay conditions for the KDM selectivity panel

KDM2A = biological target: T1, KDM2A (Homo sapiens, UniProt Q9Y2K7); assay: KDM AlphaScreen selectivity panel, KDM2A; format: biochemical; conditions: for IC50: AlphaScreen after 120 min pre-incubation, read-out: KDM IC50 2A; for SI over KDM5B, 2A: KDM2A IC50/KDM5B IC50
T1 sequence (Q9Y2K7 1-1162): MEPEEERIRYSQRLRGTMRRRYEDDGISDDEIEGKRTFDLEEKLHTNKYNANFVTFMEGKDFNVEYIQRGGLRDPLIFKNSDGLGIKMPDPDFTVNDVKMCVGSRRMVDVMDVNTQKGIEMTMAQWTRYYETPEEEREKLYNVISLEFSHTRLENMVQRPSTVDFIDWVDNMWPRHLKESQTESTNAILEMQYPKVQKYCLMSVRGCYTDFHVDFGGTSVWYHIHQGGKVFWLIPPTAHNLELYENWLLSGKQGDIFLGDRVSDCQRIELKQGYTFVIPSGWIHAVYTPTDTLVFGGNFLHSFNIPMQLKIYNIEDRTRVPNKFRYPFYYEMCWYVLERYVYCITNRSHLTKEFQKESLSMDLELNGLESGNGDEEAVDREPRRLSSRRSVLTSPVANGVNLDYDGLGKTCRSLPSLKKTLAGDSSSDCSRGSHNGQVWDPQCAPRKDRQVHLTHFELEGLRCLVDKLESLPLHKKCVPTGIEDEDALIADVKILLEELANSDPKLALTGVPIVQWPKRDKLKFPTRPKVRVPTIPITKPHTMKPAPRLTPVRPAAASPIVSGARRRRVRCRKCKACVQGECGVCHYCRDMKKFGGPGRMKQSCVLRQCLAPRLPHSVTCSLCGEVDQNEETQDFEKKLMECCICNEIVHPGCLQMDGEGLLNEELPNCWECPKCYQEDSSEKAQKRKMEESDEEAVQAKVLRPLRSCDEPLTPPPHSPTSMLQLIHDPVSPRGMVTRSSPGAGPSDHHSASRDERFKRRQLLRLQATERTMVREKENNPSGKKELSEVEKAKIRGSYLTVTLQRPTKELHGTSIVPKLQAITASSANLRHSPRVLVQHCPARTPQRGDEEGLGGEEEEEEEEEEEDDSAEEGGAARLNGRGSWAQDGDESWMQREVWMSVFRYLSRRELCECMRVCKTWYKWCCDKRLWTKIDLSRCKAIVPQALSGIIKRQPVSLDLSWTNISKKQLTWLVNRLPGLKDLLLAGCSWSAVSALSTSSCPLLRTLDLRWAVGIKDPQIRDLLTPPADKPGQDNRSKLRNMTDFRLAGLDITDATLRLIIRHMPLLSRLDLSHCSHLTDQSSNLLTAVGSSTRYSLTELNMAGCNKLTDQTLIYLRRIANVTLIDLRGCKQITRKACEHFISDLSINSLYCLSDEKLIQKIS
Experimental: as §1, §2, §3, §4, §5, §6

[1] = AlphaScreen after 120 min pre-incubation, read-out: KDM IC50 5A

KDM5A, sequence (P29375 whole entry): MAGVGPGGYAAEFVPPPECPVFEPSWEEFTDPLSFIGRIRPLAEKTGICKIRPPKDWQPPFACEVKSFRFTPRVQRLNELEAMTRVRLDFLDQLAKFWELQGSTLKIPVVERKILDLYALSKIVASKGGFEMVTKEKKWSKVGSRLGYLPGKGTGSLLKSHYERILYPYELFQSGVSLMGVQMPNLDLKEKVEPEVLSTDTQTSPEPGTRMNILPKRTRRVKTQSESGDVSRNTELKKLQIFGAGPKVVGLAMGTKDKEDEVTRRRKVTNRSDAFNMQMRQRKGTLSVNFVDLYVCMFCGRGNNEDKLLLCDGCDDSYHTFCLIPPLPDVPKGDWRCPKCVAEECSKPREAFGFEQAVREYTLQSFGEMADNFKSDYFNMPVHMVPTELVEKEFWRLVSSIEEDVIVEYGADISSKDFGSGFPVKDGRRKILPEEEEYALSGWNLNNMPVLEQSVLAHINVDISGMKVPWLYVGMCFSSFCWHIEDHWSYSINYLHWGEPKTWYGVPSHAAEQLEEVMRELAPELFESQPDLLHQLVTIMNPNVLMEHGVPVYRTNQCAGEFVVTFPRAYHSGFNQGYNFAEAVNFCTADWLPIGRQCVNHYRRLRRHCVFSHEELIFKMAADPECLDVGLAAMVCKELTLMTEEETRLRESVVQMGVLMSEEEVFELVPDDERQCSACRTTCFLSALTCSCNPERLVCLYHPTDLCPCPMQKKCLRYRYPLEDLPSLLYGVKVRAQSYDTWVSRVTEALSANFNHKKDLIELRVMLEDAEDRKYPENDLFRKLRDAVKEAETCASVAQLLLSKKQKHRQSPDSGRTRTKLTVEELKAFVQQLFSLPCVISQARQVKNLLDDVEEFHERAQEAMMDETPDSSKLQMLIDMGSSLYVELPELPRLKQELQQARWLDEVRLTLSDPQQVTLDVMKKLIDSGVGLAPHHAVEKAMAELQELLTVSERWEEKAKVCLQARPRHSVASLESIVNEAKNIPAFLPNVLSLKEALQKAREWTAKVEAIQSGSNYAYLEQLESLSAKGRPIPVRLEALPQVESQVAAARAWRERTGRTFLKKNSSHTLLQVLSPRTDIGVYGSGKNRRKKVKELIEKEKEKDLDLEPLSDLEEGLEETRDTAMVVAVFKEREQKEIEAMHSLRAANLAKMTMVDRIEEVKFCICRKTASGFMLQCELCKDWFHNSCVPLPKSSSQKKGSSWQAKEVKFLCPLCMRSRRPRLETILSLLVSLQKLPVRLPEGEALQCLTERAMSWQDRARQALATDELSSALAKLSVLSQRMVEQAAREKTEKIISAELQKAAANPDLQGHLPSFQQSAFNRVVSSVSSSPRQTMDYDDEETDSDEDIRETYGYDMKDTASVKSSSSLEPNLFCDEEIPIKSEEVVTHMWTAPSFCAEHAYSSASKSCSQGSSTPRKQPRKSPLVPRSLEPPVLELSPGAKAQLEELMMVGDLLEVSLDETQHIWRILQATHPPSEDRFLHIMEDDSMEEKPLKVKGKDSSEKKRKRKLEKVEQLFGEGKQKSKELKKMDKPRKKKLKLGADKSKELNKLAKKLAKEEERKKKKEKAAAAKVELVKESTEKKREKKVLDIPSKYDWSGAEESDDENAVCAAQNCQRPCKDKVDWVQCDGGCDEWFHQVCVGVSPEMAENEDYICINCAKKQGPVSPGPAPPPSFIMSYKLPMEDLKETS

Row | IC50 (KDM5A; [1]) | SI over KDM5B, 5A (KDM5A) | IC50 (KDM2A) | SI over KDM5B, 2A (KDM2A) | IC50 (KDM5A; 120 minutes pre-incubation, read-out: KDM5A IC50) | SMILES
1 | – | 1 | > 100000 nM | > 14113 | 10 nM | CC(C)c1c(-c2cnn(CCNC(=O)CCl)c2)[nH]c2c(C#N)cnn2c1=O [Compound 7]
2 | 50 ± 2 nM | 1 | > 100000 nM | > 1550 | – | C=CC(=O)NCCOc1ccc(-c2[nH]c3c(C#N)cnn3c(=O)c2C(C)C)cc1 [Compound 9]
3 | 70 ± 8 nM | 4 | > 100000 nM | > 5843 | – | C=CC(=O)N1CCC(n2cc(-c3[nH]c4c(C#N)cnn4c(=O)c3C(C)C)cn2)CC1 [Compound 10]
4 | 34 ± 2 nM | 4 | > 60000 nM | > 6671 | – | CC(C)c1c(-c2cnn(C3CCN(C(=O)CCl)CC3)c2)[nH]c2c(C#N)cnn2c1=O [Compound 11]

More lines, now with the values behind:

Row | SMILES | IC50 (KDM5A; [1]) | SI over KDM5B, 5A (KDM5A) | IC50 (KDM2A) | SI over KDM5B, 2A (KDM2A) | IC50 (KDM5A; 120 minutes pre-incubation, read-out: KDM5A IC50)
5 | C=CC(=O)Nc1cccc(CN(C)CCc2cnn(-c3nccc4c(=O)[nH]cnc34)c2)c1 [Compound 4] | 30 ± 4 nM | 1 | 11300 ± 300 nM | 558 | –
6 | CN(CCc1cnn(-c2nccc3c(=O)[nH]cnc23)c1)Cc1cccc(NC(=O)CCl)c1 [Compound 5] | 30 ± 1 nM | 3 | 4400 ± 100 nM | 451 | –
7 | CN(C)C/C=C/C(=O)Nc1cccc(CN(C)CCc2cnn(-c3nccc4c(=O)[nH]cnc34)c2)c1 [Compound 6] | 657 ± 7 nM | – | > 33000 nM | – | –
